Experiments:
[1] = test system: OVA-specific IgG1 and IgG2a; assay: OVA-specific IgG1 and IgG2a plasma antibody titres (ELISA) after immunization with OVA/alum with or without alkaloid; type: in vivo, mice (BALB/c)
Description: Alhydrogel (alum; purchased from Superfos BioSector a/s, Vedbaek, Denmark) was mixed with a predetermined quantity of highly purified ovalbumin (OVA; Worthington Biochemical Corporation, Lakewood, N.J.) with or without 3,7-diepi-casuarine.
(§1) All mice (BALB/c) were immunized subcutaneously into the foodpad with 100 μg OVA in 50 μl phosphate-buffered saline (PBS) mixed with alum and either PBS (control) or 3,7-diepi-casuarine (50 μg in PBS). Boosting inoculations were performed in the same fashion 2 weeks later, into the contralateral footpad.
Blood samples (tail bleeds) were taken 3 weeks after the primary inoculation. Enzyme-linked immunosorbent assays (ELISA) were performed as described in Brewer et al. (1999) J Immunol 163:6448-54 to detect OVA-specific IgG1 and IgG2a in plasma. Results were expressed as end-point dilutions where the end-point is determined as the final plasma dilution, which yields a higher absorbance than a negative control plasma sample, included in the assay.

[2] = test system: influenza vaccine-specific IgG, IgG1 and IgG2a; parameters: species or system Balb/c mice; details: mouse, in vivo
[3] = test system: Murine interferon-γ (IFN-γ); assay: IFN-γ production by spleen cells of inoculated mice re-stimulated with OVA in vitro (ELISA); type: cell-based, mice (BALB/c); details: cells from mice inoculated with alum/OVA plus 50 μg compound vs alum/OVA alone (control); FIG. 2
Description: as §1
The mouse spleen was removed aseptically and placed in a sterile petri dish containing 5 mls of complete medium (RPMI, 1% L-Glutamine, 1% Penicillin/Streptomycin and 10% foetal calf serum). Cells suspensions were prepared by using the end of a syringe and grinding the spleen through a wire mesh. The cell suspension was then centrifuged at 1000 rpm for 5 minutes. To remove the erythrocytes, the cell pellet was resuspended in Boyle's solution (Tris 0.17M & Ammonium Chloride 0.16M) and centrifuged again for 5 minutes. The pellet was then washed in medium a further two times, then resuspended in 3 ml medium. A cell count was then carried out. Stimulation assays were performed in triplicate in U-bottomed 96-well plates (Corning Costar, N.Y.) with OVA (at 5 μg/ml, 100 μg/ml and 500 μg/ml).
Murine interferon-γ (IFN-γ) was assayed by ELISA using paired antibodies according to the manufacturer's instructions.

α-glucosidase = details: cited from earlier work
glycosidase = details: cited from earlier work
α-mannosidase = details: cited from earlier work
[4] = test system: alum-induced Th1/Th2 response; assay: Effect of exogenous rIL-12 on alum-induced Th1/Th2 responses (Example 1 repeated, lymph node cultures); type: in vivo, mice (BALB/c); details: 1 μg rIL-12 in place of 3,7-diepi-casuarine; IFN-γ on lymph node cultures
Description: The experiment described in Example 1 (above) was repeated, but with the 3,7-diepi-casuarine replaced with 1 μg of rIL-12 (R&D Systems, Oxford, UK). Proliferative response assays of IFN-γ were performed on lymph node cultures rather than spleen cells (as described in Pollock et al. (2003) Immunology 108:137-143).

Which “shift of the alum-induced Th2 response towards Th1” value ([1]; 50 μg in admixture with alum/OVA, vs alum/OVA alone) does the source give for `OC[C@H]1[C@@H](O)[C@H](O)[C@H]2[C@@H](O)[C@@H](O)CN21` [3,7-diepi-casuarine, (1R,2R,3S,6S,7R,7aR)-3-(hydroxymethyl)-1,2,6,7-tetrahydroxypyrrolizidine] here?
Its value is “pronounced shift towards a Th1 response”.

And the “antigen-specific (OVA) IgG2a in plasma” value ([1]; BALB/c mice, s.c. footpad, 100 μg OVA with alum, with or without 50 μg 3,7-diepi-casuarine, bleed at 3 weeks, FIG. 1b)?
Its value is “significant increase”.

And the adjuvant activity [2]?
Its adjuvant activity is “exhibits adjuvant activity”.

And the “dose response of the antibody responses” value [2]?
Its value is “No dose response”.

And the “influenza vaccine-specific IgG1 response vs control group vaccinated with influenza vaccine alone” value [2]?
The value was “statistically significant increased”.

And the “influenza vaccine-specific IgG2a response vs control group A” value [2]?
The value was “No differences”.

What about the “influenza vaccine-specific IgGtotal response vs control group A” value [2] of the same molecule?
Its value is “statistically significant increased”.

And the “skewing of the Th1/Th2 response from Th2 towards Th1” value [2]?
Its value is “No skewing”.

What about the “IFN-γ produced by spleen cells re-stimulated with antigen in vitro” value [3] of the same molecule?
Its value is “significantly greater amount”.

With `O[C@H]1[C@H](O)[C@@H](O)CN2CC[C@H](O)[C@H]12` [castanospermine] as the molecule, how does the “inhibition of α-glucosidase” value (α-glucosidase) read?
Its value is “potent”.

With `O[C@H]1[C@H]2[C@H](O)CCN2C[C@H]1O` [compound 7, (1S, 2R, 7R, 7aR)-1,2,7-trihydroxy] as the molecule, how does the “glycosidase inhibitory activity relative to swainsonine” value (glycosidase) read?
The value was “much weaker inhibitory activity”.

Which “glycosidase inhibitory activity relative to swainsonine” value (glycosidase) does the source give for `O[C@H]1[C@H]2[C@@H](O)CCN2C[C@H]1O` [compound 8] here?
Its value is “much weaker inhibitory activity”.

With `O[C@H]1[C@H]2[C@H](O)CCCN2C[C@H]1O` [swainsonine] as the molecule, how does the “inhibition of α-mannosidase” value (α-mannosidase) read?
The value was “potent and specific inhibitor”.

B1: rIL-12: rIL-12 (R&D Systems, Oxford, UK), recombinant interleukin-12 (protein, UniProt P29459 23-219; P29460 23-328, looked up)
Interleukin-12 subunit alpha: RNLPVATPDPGMFPCLHHSQNLLRAVSNMLQKARQTLEFYPCTSEEIDHEDITKDKTSTVEACLPLELTKNESCLNSRETSFITNGSCLASRKTSFMMALCLSSIYEDLKMYQVEFKTMNAKLLMDPKRQIFLDQNMLAVIDELMQALNFNSETVPQKSSLEEPDFYKTKIKLCILLHAFRIRAVTIDRVMSYLNAS
Interleukin-12 subunit beta: IWELKKDVYVVELDWYPDAPGEMVVLTCDTPEEDGITWTLDQSSEVLGSGKTLTIQVKEFGDAGQYTCHKGGEVLSHSLLLLHKKEDGIWSTDILKDQKEPKNKTFLRCEAKNYSGRFTCWWLTTISTDLTFSVKSSRGSSDPQGVTCGAATLSAERVRGDNKEYEYSVECQEDSACPAAEESLPIEVMVDAVHKLKYENYTSSFFIRDIIKPDPPKNLQLKPLKNSRQVEVSWEYPDTWSTPHSYFSLTFCVQVQGKSKREKKDRVFTDKTSATVICRKNASISVRAQDRYYSSSWSEWASVPCS
With B1 as the molecule, how does the “effect on the alum-induced Th1/Th2 response” value [4] read?
The value was “comparable effect to 3,7-diepi-casuarine”.
